Source: patent US20120214862A1, “MODULATION OF FACTOR 7 EXPRESSION” (ISIS Pharmaceuticals, Inc., priority 2009, published 2012)
In the oligonucleotide strings, read from the 5' end, every base follows the letter of its sugar. An asterisk marks phosphorothioate; unmarked linkages are phosphodiester. Other units and linkages are bracketed, terminal groups are in braces. A string of capitals states the bases alone. e = 2'-O-(2-methoxyethyl) (MOE); [5mC] = 5-methylcytosine; d = 2'-deoxy (DNA)

Tested on: human Factor 7 mRNA
Test: Antisense inhibition of human Factor 7 mRNA in HepB3 cells, lipofectin, 50 nM, real-time RT-PCR
Format: cell-based
Conditions: Example 1; HepB3 cells, lipofectin, 50 nM, ~24 h, relative to untreated control cells
Summary of the method: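 4,000 cells/well; ~24 h exposure; RNA isolated; probe set RTS 2927; normalised to RIBOGREEN® total RNA; % inhibition vs untreated.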

| Substance | % Inhibition (human Factor 7 mRNA) [%] |
| --- | --- |
| 407931 (antisense e[5mC]*eT*eT*e[5mC]*eA*dG*dA*dG*dG*dA*d[5mC]*dA*dG*d[5mC]*dA*e[5mC]*eA*e[5mC]*eA*eT) [compound 407931] | 56 |
| 407932 (antisense eG*eA*eA*e[5mC]*e[5mC]*dA*dG*dA*dA*dA*dA*dG*dT*dG*dA*eG*eA*eG*e[5mC]*eT) [compound 407932] | 55 |
| 407933 (antisense eT*eG*eA*eT*eA*dA*dT*dG*dG*dA*dT*dA*dA*dG*dA*eA*e[5mC]*e[5mC]*eA*eG) [compound 407933] | 58 |
| 407934 (antisense e[5mC]*eT*eG*eA*eA*dG*dT*dG*dA*dA*dG*dA*dT*dG*dA*eT*eA*eA*eT*eG) [compound 407934] | 45 |
| 407937 (antisense eG*eA*eA*eG*eG*dG*dA*dG*dA*dA*dA*dT*dA*d[5mC]*dA*eT*eT*eT*eG*eG) [compound 407937] | 59 |
| 407938 (antisense e[5mC]*eA*e[5mC]*e[5mC]*e[5mC]*dA*dG*d[5mC]*dG*dA*dA*dG*dG*dG*dA*eG*eA*eA*eA*eT) [compound 407938] | 60 |
| 407940 (antisense eT*eG*eT*eG*eA*dA*dG*d[5mC]*dT*dG*dG*dG*dA*dA*dG*e[5mC]*eA*eG*eG*eT) [compound 407940] | 62 |
| 407941 (antisense eG*eA*eG*eA*e[5mC]*dG*d[5mC]*dA*dG*d[5mC]*d[5mC]*dG*dT*dT*dT*eA*eT*eT*eG*eT) [compound 407941] | 65 |
| 407942 (antisense e[5mC]*eA*e[5mC]*eA*eG*dG*dT*dG*dT*dG*d[5mC]*dG*dG*dA*dG*eG*eA*eG*eA*e[5mC]) [compound 407942] | 41 |
| 407943 (antisense eG*e[5mC]*eA*eG*eG*d[5mC]*dA*d[5mC]*d[5mC]*dA*d[5mC]*dA*dG*dG*dT*eG*eT*eG*e[5mC]*eG) [compound 407943] | 34 |
| 407944 (antisense e[5mC]*e[5mC]*eA*eG*eT*dG*dG*dG*dT*dG*dG*d[5mC]*dA*dG*dG*e[5mC]*eA*e[5mC]*e[5mC]*eA) [compound 407944] | 59 |
| 407945 (antisense eA*eA*eT*e[5mC]*eA*dT*dG*dG*dG*d[5mC]*dA*dA*d[5mC]*d[5mC]*d[5mC]*eA*eG*eT*eG*eG) [compound 407945] | 56 |
| 407946 (antisense eT*e[5mC]*e[5mC]*eA*eA*dA*dA*dA*dT*dG*dA*dA*dT*d[5mC]*dA*eT*eG*eG*eG*e[5mC]) [compound 407946] | 5 |
| 407950 (antisense eA*eG*e[5mC]*eT*eT*d[5mC]*d[5mC]*dA*dT*dG*dT*dG*dA*dG*dG*eG*eT*eT*e[5mC]*eA) [compound 407950] | 58 |
| 407951 (antisense eA*eA*e[5mC]*eA*eG*d[5mC]*dT*dT*dT*dT*dG*dT*dT*dT*dT*eT*eA*eA*eA*eA) [compound 407951] | 0 |
| 407952 (antisense eG*eG*eA*eT*e[5mC]*d[5mC]*dT*dG*dG*dG*dA*dG*d[5mC]*dT*dA*e[5mC]*eA*eG*e[5mC]*e[5mC]) [compound 407952] | 41 |
| 407953 (antisense eA*e[5mC]*eA*eT*e[5mC]*d[5mC]*dA*dA*dT*dT*d[5mC]*d[5mC]*dA*d[5mC]*dA*eG*eG*eA*eT*e[5mC]) [compound 407953] | 20 |
| 407954 (antisense e[5mC]*eA*eG*eG*eG*dA*dG*dA*dG*dA*dA*d[5mC]*dA*dT*d[5mC]*e[5mC]*eA*eA*eT*eT) [compound 407954] | 39 |
| 407955 (antisense eT*eG*eT*eG*eA*dA*dA*dT*dA*dT*d[5mC]*dA*dT*dT*dG*eA*e[5mC]*eA*eA*eG) [compound 407955] | 3 |
| 407956 (antisense eA*eA*e[5mC]*eT*eT*dG*d[5mC]*dA*dT*dT*dT*dA*dG*dT*dG*eA*eT*eG*e[5mC]*eG) [compound 407956] | 19 |
| 407957 (antisense eG*eG*e[5mC]*e[5mC]*eT*dG*dG*dG*dA*dA*d[5mC]*dT*dT*dG*d[5mC]*eA*eT*eT*eT*eA) [compound 407957] | 52 |
| 407958 (antisense eG*e[5mC]*e[5mC]*eG*eT*dG*d[5mC]*dT*dT*dG*d[5mC]*d[5mC]*dG*dG*dA*eG*eT*e[5mC]*eT*eG) [compound 407958] | 58 |
| 407959 (antisense eG*e[5mC]*eA*eG*eG*dG*dA*dT*dG*dG*d[5mC]*dA*dT*d[5mC]*dG*eA*eG*eT*e[5mC]*e[5mC]) [compound 407959] | 0 |
| 407960 (antisense eG*eT*eG*e[5mC]*e[5mC]*d[5mC]*dA*dG*dG*dA*d[5mC]*dG*dG*d[5mC]*d[5mC]*e[5mC]*eT*eG*e[5mC]*eA) [compound 407960] | 53 |
| 407961 (antisense eA*eA*eG*eT*eA*dG*dA*dT*dG*dA*dT*dG*d[5mC]*d[5mC]*dT*eG*eA*eG*eT*eG) [compound 407961] | 34 |
| 407962 (antisense eT*eT*eG*eG*eA*dA*dG*d[5mC]*dA*dG*d[5mC]*d[5mC]*d[5mC]*dA*d[5mC]*eG*eG*e[5mC]*eT*eG) [compound 407962] | 41 |
| 407963 (antisense eA*eG*eA*eG*e[5mC]*dA*dG*dG*dG*dT*dG*d[5mC]*d[5mC]*dT*dT*eG*eG*eA*eA*eG) [compound 407963] | 33 |

Same assay, conditions: HepB3 cells, lipofectin, 50 nM antisense oligonucleotide, approximately 24 hours, primer probe set RTS 2927, relative to untreated control

| Substance | % Inhibition of human Factor 7 mRNA levels [%] |
| --- | --- |
| 416422 (antisense eA*eG*e[5mC]*eG*eA*d[5mC]*d[5mC]*d[5mC]*d[5mC]*dG*d[5mC]*d[5mC]*dT*dG*d[5mC]*eA*eG*e[5mC]*e[5mC]*eA) [compound 416422] | 8 |
| 416423 (antisense eG*eT*eG*eT*eT*dT*d[5mC]*dT*d[5mC]*d[5mC]*dT*d[5mC]*d[5mC]*dT*dG*eA*eG*eG*e[5mC]*e[5mC]) [compound 416423] | 51 |
| 416424 (antisense eG*eA*eG*eA*e[5mC]*d[5mC]*dA*dT*dG*dA*dT*dG*dA*dA*dA*eT*e[5mC]*eT*e[5mC]*eT) [compound 416424] | 27 |
| 416425 (antisense eA*eA*eG*e[5mC]*eA*dG*dA*dA*dG*dG*d[5mC]*dA*dG*dA*dG*eG*eA*eG*e[5mC]*e[5mC]) [compound 416425] | 13 |
| 416426 (antisense eA*eG*e[5mC]*e[5mC]*e[5mC]*dA*dA*dG*d[5mC]*dA*dG*dA*dA*dG*dG*e[5mC]*eA*eG*eA*eG) [compound 416426] | 34 |
| 416427 (antisense e[5mC]*e[5mC]*e[5mC]*eT*eG*dA*dA*dG*d[5mC]*d[5mC]*d[5mC]*dA*dA*dG*d[5mC]*eA*eG*eA*eA*eG) [compound 416427] | 5 |
| 416428 (antisense e[5mC]*eT*eG*eG*eG*dT*dT*dA*d[5mC]*dG*dA*dA*dG*dA*d[5mC]*eT*eG*e[5mC]*eA*eG) [compound 416428] | 11 |
| 416429 (antisense eA*e[5mC]*eG*e[5mC]*e[5mC]*dG*dT*dG*dG*dG*d[5mC]*dT*dT*d[5mC]*d[5mC]*eT*e[5mC]*e[5mC]*eT*eG) [compound 416429] | 47 |
| 416430 (antisense eG*e[5mC]*eA*eG*e[5mC]*dT*d[5mC]*d[5mC]*dT*d[5mC]*d[5mC]*dA*dG*dG*dA*eA*e[5mC]*eG*e[5mC]*eG) [compound 416430] | 52 |
| 416431 (antisense eA*eG*eG*eG*eA*dG*d[5mC]*d[5mC]*d[5mC]*dG*dG*d[5mC]*d[5mC]*dG*d[5mC]*eA*eG*e[5mC]*eT*e[5mC]) [compound 416431] | 25 |
| 416432 (antisense eA*eG*e[5mC]*eA*e[5mC]*dT*dG*d[5mC]*dT*d[5mC]*d[5mC]*dT*d[5mC]*d[5mC]*dT*eT*eG*e[5mC]*eA*e[5mC]) [compound 416432] | 44 |
| 416433 (antisense eA*eG*eA*eA*eA*dT*d[5mC]*d[5mC]*dA*dG*dA*dA*d[5mC]*dA*dG*e[5mC]*eT*eT*e[5mC]*eG) [compound 416433] | 0 |
| 416434 (antisense e[5mC]*eT*eG*eT*eA*dA*dG*dA*dA*dA*dT*d[5mC]*d[5mC]*dA*dG*eA*eA*e[5mC]*eA*eG) [compound 416434] | 0 |
| 416435 (antisense e[5mC]*e[5mC]*e[5mC]*eA*eT*d[5mC]*dA*d[5mC]*dT*dG*dT*dA*dA*dG*dA*eA*eA*eT*e[5mC]*e[5mC]) [compound 416435] | 3 |
| 416436 (antisense eA*e[5mC]*eT*eG*eG*dT*d[5mC]*d[5mC]*d[5mC]*d[5mC]*dA*dT*d[5mC]*dA*d[5mC]*eT*eG*eT*eA*eA) [compound 416436] | 27 |
| 416437 (antisense eA*eG*eG*e[5mC]*eA*d[5mC]*dA*d[5mC]*dT*dG*dG*dT*d[5mC]*d[5mC]*d[5mC]*e[5mC]*eA*eT*e[5mC]*eA) [compound 416437] | 52 |
| 416439 (antisense eG*eT*e[5mC]*e[5mC]*eT*dT*dG*d[5mC]*dA*dG*dG*dA*dG*d[5mC]*d[5mC]*e[5mC]*e[5mC]*e[5mC]*eA*eT) [compound 416439] | 56 |
| 416440 (antisense eG*eG*eA*e[5mC]*eT*dG*dG*dA*dG*d[5mC]*dT*dG*dG*dT*d[5mC]*e[5mC]*eT*eT*eG*e[5mC]) [compound 416440] | 44 |
| 416441 (antisense eA*eG*eA*eT*eA*dT*dA*dG*dG*dA*d[5mC]*dT*dG*dG*dA*eG*e[5mC]*eT*eG*eG) [compound 416441] | 32 |
